The source of these data is patent US20080280837A1, “Biologically Active Compounds with Anti-Angiogenic Properties” (priority 2004, published 2008).

This test concerns the target T1, Human SST5 somatostatin receptor (SSTR5) (Homo sapiens, UniProt P35346).
T1 construct: expressed in transfected cells; host or cells: HEK-293 EBNA
The test is described as follows: Filter plate assay for SST5 receptor, displacement of [125I]SST-14. Format: binding. On the procedure: Receptor membrane preparations containing the desired cloned receptor (for example cloned human somatostatin receptor subtype 5, SSTR5) and radio-labeled ligand (for example 3-[^125I]iodotyrosyl^11 Somatostatin-14)) were diluted at the concentration required for testing and according to the specific parameters associated with the selected receptor-ligand combination, including receptor Bmax, ligand Kd and any other parameters necessary to optimize the experimental conditions. When tested for competition activity to the reference ligand, “compound 1” was mixed with membrane suspension and the radiolabeled reference ligand (with or without an excess of cold ligand to the receptor for determination of non-specific binding) and incubated at the temperature required by internal standard operating procedures. Following incubation, the binding reaction was stopped by the addition of ice-cold washing buffer and filtered on appropriate filters, which are then counted. Data analysis and curve-fitting was performed with XLfit (IDBS).
10 mM solutions of test compounds in 100% DMSO were prepared. ˜160 μl was used for each dilution (20 μl/well in triplicate).
A 1.25 mM assay stock was prepared by making a 1:8 dilution of the 10 mM solution. (To 30 μL of the 10 mM solution was added 210 μL milli-Q H2O. A 1:5 dilution series in milli-Q H2O was then prepared.
Assays were performed in triplicate at each concentration within the 1:5 dilution series: 250 μM, 50 μM, 10 μM, […], 0.4 μM, 0.08 μM, 0.016 μM, 0.0032 μM, etc. (for SST4 assay) and 125 μM, 10 μM, 2 μM, 1 μM, 0.5 μM, etc (for SST5 assay).
Human SST5 somatostatin receptor was transfected into HEK-293 EBNA cells. Membranes were suspended in assay buffer (50 mM Tris-HCl, 1 mM EGTA, 5 mM MgCl2, 10% sucrose, pH 7.5).
After thawing the frozen receptor preparation rapidly, receptors were diluted with binding buffer, homogenized, and kept on ice. • 1. Use Multiscreen glass fiber filter plates (Millipore, Cat No MAFCNOB10) precoated with o.5% PEI for ˜2 hr at 4° C. Before use add 200 μl/well assay buffer and filter using Multiscreen Separation System. • 2. Incubate 5.5 μg of membranes (40 μl of a 1:40 dilution), buffer and [^125I]SST-14 (4 nM, ˜80 000 cpm, 2000 Ci/mmol) in a total volume of 200 μl for 60 min at 25° C. […] Prepare serial dilutions (1:5) of compounds, as described above and instead of adding SST-14 in well, add 20 μl of compounds (Table 1). • 3. Filter using Multiscreen Separation System with 5×0.2 ml ice-cold Assay buffer. • 4. Remove the plastic underdrain and dry plate in oven for 1 hr at 40° C. • 5. Seal tape to the bottom of the plate. • 6. Add 50 μl/well scintillant (Supermix, Wallac, Cat No 1200-439). • 7. Seal and count in the BJET, program 2.
In primary screening experiments compounds were tested in duplicate for a particular concentration.
On the technique in general: In a radioligand displacement assay an active substance lowers the binding of a labelled ligand.

T1 sequence (P35346 whole entry): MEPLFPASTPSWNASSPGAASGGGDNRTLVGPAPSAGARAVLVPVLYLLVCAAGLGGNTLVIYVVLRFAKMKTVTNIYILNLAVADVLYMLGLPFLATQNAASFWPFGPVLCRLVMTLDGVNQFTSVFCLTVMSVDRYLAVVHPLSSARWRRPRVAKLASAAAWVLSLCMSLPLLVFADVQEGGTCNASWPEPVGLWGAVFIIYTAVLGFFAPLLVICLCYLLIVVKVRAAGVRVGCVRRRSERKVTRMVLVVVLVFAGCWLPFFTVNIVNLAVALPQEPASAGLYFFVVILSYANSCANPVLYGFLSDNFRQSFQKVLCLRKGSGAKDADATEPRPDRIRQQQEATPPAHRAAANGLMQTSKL

In the case of `COC[C@H]1OC(OCc2ccc(-c3ccccc3)cc2)[C@H](NC(=O)CCCNC(=N)N)[C@@H](OCc2ccc(-c3ccccc3)cc2)[C@@H]1O` (some centres unmarked) [Compound 58], the “SSTR5 Inhib 0.5 uM % (inhibition of binding of SST-14 to SSTR5)” value (“SSTR5 Inhib 0.5 uM %” for short) was found to be 65% and the “SSTR5 Inhib 10 uM % (inhibition of binding of SST-14 to SSTR5)” value (shortened to “SSTR5 Inhib 10 uM %”) is on record as 91%.
The like results for `CSC1O[C@H](COCc2ccccc2)[C@@H](O)[C@@H](OCc2ccc(Cl)cc2)[C@H]1NC(=O)CCNC(=N)N` (some centres unmarked) [Compound 118] were, in that order, 37% and 81%.
The like results for `COC[C@H]1OC(OCc2ccccc2)[C@H](NC(=O)CCNC(=N)N)[C@H](OCc2ccc3ccccc3c2)[C@@H]1O` (some centres unmarked) [Compound 53] were, in that order, 58% and 91%.
The like results for `COC[C@H]1OC(OCc2ccccc2)[C@H](NC(=O)CCNC(=N)N)[C@H](OCc2ccccc2)[C@@H]1O` (some centres unmarked) [Compound 112] were, in that order, 58% and 83%.
As to `COC[C@H]1OC(OCCc2ccccc2)[C@H](NC(=O)CCN)[C@H](OCc2ccc(Cl)cc2)[C@@H]1O` (some centres unmarked) [Compound 34], the “SSTR5 Inhib 0.5 uM %” value came out at 61% and the “SSTR5 Inhib 10 uM %” value stood at 95%.
The like results for `CSC1O[C@H](COCc2ccccc2)[C@@H](O)[C@@H](OCc2ccc3ccccc3c2)[C@H]1NC(=O)CCCN` (some centres unmarked) [Compound 156] were, in that order, 25% and 76%.
The like results for `COC1C(O)C(COCc2ccc3ccccc3c2)OC(OCc2ccc(Cl)cc2)C1NC(=O)C1CCCN1` (centres unmarked) [Compound 51] were, in that order, 76% and 92%.
As for `COC[C@H]1OC(OCc2ccc3ccccc3c2)[C@H](NC(=O)CNC(=N)N)[C@H](OCc2ccc3ccccc3c2)[C@@H]1O` (some centres unmarked) [Compound 174], the “SSTR5 Inhib 0.5 uM %” value is recorded as 31% and the “SSTR5 Inhib 10 uM %” value came to 71%.
The like results for `COC[C@H]1OC(OCc2ccc3ccccc3c2)[C@H](NC(=O)CCCNC(=N)N)[C@@H](OCc2ccc3ccccc3c2)[C@@H]1O` (some centres unmarked) [Compound 75] were, in that order, 61% and 89%.
The like results for `COC[C@H]1OC(OCc2ccc(-c3ccccc3)cc2)[C@H](NC(=O)CCCN)[C@@H](OCc2ccc(Cl)cc2)[C@@H]1O` (some centres unmarked) [Compound 74] were, in that order, 64% and 89%.
As for `COC[C@H]1OC(OCc2ccc3ccccc3c2)[C@H](NC(=O)CCCNC(=N)N)[C@@H](OCc2ccccc2)[C@@H]1O` (some centres unmarked) [Compound 135], the “SSTR5 Inhib 0.5 uM %” value is 45% and the “SSTR5 Inhib 10 uM %” value is 79%.
The like results for `COC[C@H]1OC(OCc2ccc3ccccc3c2)[C@H](NC(=O)CCN)[C@H](OCc2ccccc2)[C@@H]1O` (some centres unmarked) [Compound 21] were, in that order, 81% and 97%.
In the case of `COC[C@H]1OC(OCc2ccc3ccccc3c2)[C@H](NC(=O)CNC(=N)N)[C@@H](OCc2ccc3ccccc3c2)[C@@H]1O` (some centres unmarked) [Compound 137], the “SSTR5 Inhib 0.5 uM %” value is listed as 43% and the “SSTR5 Inhib 10 uM %” value was 79%.
The like results for `COC1C(O)C(COCc2ccc3ccccc3c2)OC(OCc2ccc(Cl)cc2)C1NC(=O)C1CCN(C(=N)N)CC1` (centres unmarked) [Compound 79] were, in that order, 55% and 88%.
The like results for `COC[C@H]1OC(OCc2ccc(Cl)cc2)[C@H](NC(=O)CCNC(=N)N)[C@@H](OCc2ccc(-c3ccccc3)cc2)[C@@H]1O` (some centres unmarked) [Compound 101] were, in that order, 50% and 84%.
Consider `CSC1O[C@H](COCc2ccc3ccccc3c2)[C@@H](O)[C@@H](OCc2ccccc2)[C@H]1NC(=O)CCN` (some centres unmarked) [Compound 105], for which the “SSTR5 Inhib 0.5 uM %” value was 44% and the “SSTR5 Inhib 10 uM %” value was 83%.
The like results for `COC[C@H]1OC(OCc2ccc3ccccc3c2)[C@H](NC(=O)CCNC(=N)N)[C@H](OCc2ccc(-c3ccccc3)cc2)[C@@H]1O` (some centres unmarked) [Compound 36] were, in that order, 67% and 95%.
The like results for `CSC1OC(COCc2ccc(Cl)cc2)C(O)C(OCc2ccc(-c3ccccc3)cc2)C1NC(=O)CN` (centres unmarked) [Compound 83] were, in that order, 61% and 87%.
The like results for `COC[C@H]1OC(OCc2ccccc2)[C@H](NC(=O)CCN)[C@H](OCc2ccc3ccccc3c2)[C@@H]1O` (some centres unmarked) [Compound 37] were, in that order, 81% and 95%.
In the case of `COC[C@H]1OC(OCc2ccc3ccccc3c2)[C@H](NC(=O)CCNC(=N)N)[C@@H](OCc2ccc(-c3ccccc3)cc2)[C@@H]1O` (some centres unmarked) [Compound 52], the “SSTR5 Inhib 0.5 uM %” value stood at 69% and the “SSTR5 Inhib 10 uM %” value is recorded as 92%.
The like results for `CO[C@H]1[C@H](O)[C@@H](COCc2ccc3ccccc3c2)OC(OCc2ccc3ccccc3c2)[C@@H]1NC(=O)CNC(=N)N` (some centres unmarked) [Compound 126] were, in that order, 57% and 80%.
The like results for `COC[C@H]1OC(OCc2ccccc2)[C@H](NC(=O)CCCN)[C@@H](OCc2ccc(Cl)cc2)[C@@H]1O` (some centres unmarked) [Compound 110] were, in that order, 45% and 83%.
The like results for `COC1C(O)C(COCc2ccc3ccccc3c2)OC(OCc2ccc3ccccc3c2)C1NC(=O)CCCN` (centres unmarked) [Compound 81] were, in that order, 60% and 87%.
Take `COC[C@H]1OC(OCCc2ccccc2)[C@H](NC(=O)CCCN)[C@@H](OCc2ccc3ccccc3c2)[C@@H]1O` (some centres unmarked) [Compound 73]: the “SSTR5 Inhib 0.5 uM %” value was 56% and the “SSTR5 Inhib 10 uM %” value is listed as 89%.
In the case of `COC[C@H]1OC(OCc2ccc(Cl)cc2)[C@H](NC(=O)CCCN)[C@@H](OCc2cccc(O)c2)[C@@H]1O` (some centres unmarked) [Compound 113], the “SSTR5 Inhib 0.5 uM %” value was 50% and the “SSTR5 Inhib 10 uM %” value is 83%.
The like results for `COC[C@H]1OC(OCc2ccc3ccccc3c2)[C@H](NC(=O)CCCNC(=N)N)[C@@H](OCc2ccc(Cl)cc2)[C@@H]1O` (some centres unmarked) [Compound 23] were, in that order, 80% and 96%.
The like results for `COC1C(O)C(COCc2ccc(Cl)cc2)OC(OCc2ccc3ccccc3c2)C1NC(=O)CCCNC(=N)N` (centres unmarked) [Compound 134] were, in that order, 55% and 79%.
The like results for `COC[C@H]1OC(OCc2ccc(Cl)cc2)[C@H](NC(=O)CCCN)[C@H](OCc2ccc(-c3ccccc3)cc2)[C@@H]1O` (some centres unmarked) [Compound 27] were, in that order, 74% and 96%.
In the case of `COC[C@H]1OC(OCc2ccccc2)[C@H](NC(=O)CCN)[C@H](OCc2ccccc2)[C@@H]1O` (some centres unmarked) [Compound 163], the “SSTR5 Inhib 0.5 uM %” value was 34% and the “SSTR5 Inhib 10 uM %” value was 73%.
The like results for `CSC1O[C@H](COCc2ccc(-c3ccccc3)cc2)[C@@H](O)[C@@H](OCc2ccc3ccccc3c2)[C@H]1NC(=O)CCCN` (some centres unmarked) [Compound 127] were, in that order, 48% and 80%.
Consider `COC[C@H]1OC(OCc2ccccc2)[C@H](NC(=O)CCNC(=N)N)[C@@H](OCc2ccc(-c3ccccc3)cc2)[C@@H]1O` (some centres unmarked) [Compound 172], for which the “SSTR5 Inhib 0.5 uM %” value came to 21% and the “SSTR5 Inhib 10 uM %” value was 72%.
